The results in this text go back to article PMC7206119, “RIP1 inhibition blocks inflammatory diseases but not tumor growth or metastases” (Cell Death and Differentiation, 2019).

Among the targets are ABL2 (Homo sapiens, UniProt P42684); AKT2 (Homo sapiens, UniProt P31751); CDK2 (Homo sapiens, UniProt P24941); CDKL3 (Homo sapiens, UniProt Q8IVW4); CHEK1 (Homo sapiens, UniProt O14757); ERBB4 (Homo sapiens, UniProt Q15303); FLT3(D835H) (Homo sapiens, UniProt P36888, D835H); NEK10 (Homo sapiens, UniProt Q6ZWH5); PIM3 (Homo sapiens, UniProt Q86V86); PKN1 (Homo sapiens, UniProt Q16512); PRKCI (Homo sapiens, UniProt P41743); PRKX (Homo sapiens, UniProt P51817); SNRK (Homo sapiens, UniProt Q9NRH2); STK36 (Homo sapiens, UniProt Q9NRP7); WEE2 (Homo sapiens, UniProt P0C1S8).

Holding throughout (assay): biochemical
Common to all, as to parameters: DiscoverX kinase panel, active-site competition binding (KINOMEscan type), percent of control at one concentration
Common to all, as to details: competition binding, percent of control

The target of a further experiment is T1, LOK (Homo sapiens, UniProt O94804).
T1 construct: gene STK10

A further experiment addresses T2, NDR2 (Homo sapiens, UniProt Q9Y2H1).
T2 construct: gene STK38L

A further experiment deals with T3, PRKR (Homo sapiens, UniProt P19525).
T3 construct: gene EIF2AK2
T3 sequence (P19525 whole entry): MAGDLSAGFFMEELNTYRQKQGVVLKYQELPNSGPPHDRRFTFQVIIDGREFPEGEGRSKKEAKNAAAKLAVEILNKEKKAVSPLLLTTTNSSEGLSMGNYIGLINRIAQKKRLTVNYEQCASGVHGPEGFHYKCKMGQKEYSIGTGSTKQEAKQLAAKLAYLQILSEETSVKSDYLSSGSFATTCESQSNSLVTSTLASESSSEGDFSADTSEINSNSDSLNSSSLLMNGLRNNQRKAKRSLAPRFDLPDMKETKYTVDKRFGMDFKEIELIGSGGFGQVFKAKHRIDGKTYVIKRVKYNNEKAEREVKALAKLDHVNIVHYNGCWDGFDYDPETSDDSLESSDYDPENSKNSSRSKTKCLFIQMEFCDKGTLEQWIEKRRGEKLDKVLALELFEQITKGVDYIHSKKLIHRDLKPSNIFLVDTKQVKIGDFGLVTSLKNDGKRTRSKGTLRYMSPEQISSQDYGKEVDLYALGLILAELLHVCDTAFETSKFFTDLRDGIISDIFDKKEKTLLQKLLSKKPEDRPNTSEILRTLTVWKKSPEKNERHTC

For the next experiment, the target named is T4, PRP4 (Homo sapiens, UniProt Q13523).
T4 construct: gene PRPF4B
T4 sequence (Q13523 whole entry): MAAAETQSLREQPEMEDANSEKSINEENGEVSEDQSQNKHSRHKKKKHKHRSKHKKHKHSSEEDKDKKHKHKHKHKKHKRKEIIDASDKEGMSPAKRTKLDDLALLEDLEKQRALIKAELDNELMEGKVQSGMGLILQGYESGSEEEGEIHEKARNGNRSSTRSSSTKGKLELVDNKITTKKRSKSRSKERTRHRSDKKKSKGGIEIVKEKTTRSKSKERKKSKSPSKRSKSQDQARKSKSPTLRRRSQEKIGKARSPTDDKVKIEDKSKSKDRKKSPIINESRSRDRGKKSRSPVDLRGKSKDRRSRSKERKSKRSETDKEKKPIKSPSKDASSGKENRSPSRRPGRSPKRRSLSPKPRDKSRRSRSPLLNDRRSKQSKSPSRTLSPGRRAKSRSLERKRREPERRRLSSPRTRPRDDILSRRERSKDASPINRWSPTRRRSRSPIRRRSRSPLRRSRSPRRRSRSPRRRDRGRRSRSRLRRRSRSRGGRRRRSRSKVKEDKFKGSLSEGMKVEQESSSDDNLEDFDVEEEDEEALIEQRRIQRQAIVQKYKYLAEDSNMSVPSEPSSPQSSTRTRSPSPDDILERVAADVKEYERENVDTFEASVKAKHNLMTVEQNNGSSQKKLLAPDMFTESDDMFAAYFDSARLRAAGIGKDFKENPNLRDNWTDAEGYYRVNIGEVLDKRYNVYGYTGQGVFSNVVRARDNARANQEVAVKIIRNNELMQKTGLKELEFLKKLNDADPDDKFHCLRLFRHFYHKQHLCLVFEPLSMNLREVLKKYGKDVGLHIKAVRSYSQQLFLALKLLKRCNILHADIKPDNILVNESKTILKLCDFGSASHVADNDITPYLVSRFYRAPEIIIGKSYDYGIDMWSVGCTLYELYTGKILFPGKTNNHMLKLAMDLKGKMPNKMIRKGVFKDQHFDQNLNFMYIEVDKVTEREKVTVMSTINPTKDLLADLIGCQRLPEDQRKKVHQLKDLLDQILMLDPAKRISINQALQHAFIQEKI

Another experiment deals with T5, QSK (Homo sapiens, UniProt Q9Y2K2).
T5 construct: gene SIK3

Experiment [1] deals with T6, RSK3(Kin.Dom.1-N-terminal) (Homo sapiens, UniProt Q15349).
T6 construct: gene RPS6KA2; Kin.Dom.1-N-terminal

Chain of CHEK1 (O14757 whole entry): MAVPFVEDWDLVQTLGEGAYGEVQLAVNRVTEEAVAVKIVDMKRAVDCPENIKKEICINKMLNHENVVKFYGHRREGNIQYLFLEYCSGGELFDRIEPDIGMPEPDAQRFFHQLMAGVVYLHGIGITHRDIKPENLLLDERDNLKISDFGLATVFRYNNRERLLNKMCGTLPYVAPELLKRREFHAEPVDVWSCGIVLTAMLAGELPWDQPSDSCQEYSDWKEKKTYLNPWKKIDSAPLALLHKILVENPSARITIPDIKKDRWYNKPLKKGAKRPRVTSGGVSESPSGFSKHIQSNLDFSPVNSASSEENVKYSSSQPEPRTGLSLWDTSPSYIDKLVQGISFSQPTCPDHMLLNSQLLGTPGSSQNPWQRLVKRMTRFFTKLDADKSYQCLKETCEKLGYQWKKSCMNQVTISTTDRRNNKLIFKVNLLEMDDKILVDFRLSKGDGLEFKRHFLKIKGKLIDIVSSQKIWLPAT
Chain of WEE2 (P0C1S8 whole entry): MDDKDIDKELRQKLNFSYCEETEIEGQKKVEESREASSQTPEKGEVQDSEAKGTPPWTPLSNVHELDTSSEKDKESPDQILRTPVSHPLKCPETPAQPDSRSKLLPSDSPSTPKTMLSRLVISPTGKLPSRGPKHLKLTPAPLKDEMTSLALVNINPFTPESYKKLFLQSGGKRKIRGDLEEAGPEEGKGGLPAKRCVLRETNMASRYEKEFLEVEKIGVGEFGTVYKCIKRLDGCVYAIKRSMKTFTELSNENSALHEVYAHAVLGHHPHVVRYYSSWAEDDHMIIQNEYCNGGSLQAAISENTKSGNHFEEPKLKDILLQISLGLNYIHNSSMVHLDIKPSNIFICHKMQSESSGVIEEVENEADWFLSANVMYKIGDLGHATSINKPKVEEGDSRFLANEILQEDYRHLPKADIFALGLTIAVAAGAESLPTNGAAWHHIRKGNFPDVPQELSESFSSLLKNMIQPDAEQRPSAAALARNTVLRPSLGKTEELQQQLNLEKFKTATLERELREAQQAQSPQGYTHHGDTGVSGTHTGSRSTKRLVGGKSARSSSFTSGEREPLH
Chain of SNRK (Q9NRH2 whole entry): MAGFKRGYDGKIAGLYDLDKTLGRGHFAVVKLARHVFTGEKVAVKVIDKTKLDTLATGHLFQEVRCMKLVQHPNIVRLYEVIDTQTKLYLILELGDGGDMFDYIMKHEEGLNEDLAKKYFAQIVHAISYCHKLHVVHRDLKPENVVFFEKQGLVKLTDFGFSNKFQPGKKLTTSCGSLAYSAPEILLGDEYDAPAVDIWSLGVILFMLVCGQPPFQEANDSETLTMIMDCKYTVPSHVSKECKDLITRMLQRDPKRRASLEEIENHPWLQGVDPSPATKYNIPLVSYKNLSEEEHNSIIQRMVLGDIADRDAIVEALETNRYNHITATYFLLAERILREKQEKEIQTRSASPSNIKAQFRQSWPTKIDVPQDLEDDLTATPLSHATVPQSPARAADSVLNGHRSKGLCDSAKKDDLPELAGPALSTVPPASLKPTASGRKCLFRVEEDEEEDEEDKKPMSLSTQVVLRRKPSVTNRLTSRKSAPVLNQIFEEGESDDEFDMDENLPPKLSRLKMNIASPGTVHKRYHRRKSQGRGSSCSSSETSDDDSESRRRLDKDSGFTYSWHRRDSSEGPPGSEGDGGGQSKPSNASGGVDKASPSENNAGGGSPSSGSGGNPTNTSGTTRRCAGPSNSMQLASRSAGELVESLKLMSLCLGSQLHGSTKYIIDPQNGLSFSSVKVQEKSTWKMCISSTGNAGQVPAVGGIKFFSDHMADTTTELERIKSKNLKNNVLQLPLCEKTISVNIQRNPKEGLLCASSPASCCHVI
Chain of ABL2 (P42684 whole entry): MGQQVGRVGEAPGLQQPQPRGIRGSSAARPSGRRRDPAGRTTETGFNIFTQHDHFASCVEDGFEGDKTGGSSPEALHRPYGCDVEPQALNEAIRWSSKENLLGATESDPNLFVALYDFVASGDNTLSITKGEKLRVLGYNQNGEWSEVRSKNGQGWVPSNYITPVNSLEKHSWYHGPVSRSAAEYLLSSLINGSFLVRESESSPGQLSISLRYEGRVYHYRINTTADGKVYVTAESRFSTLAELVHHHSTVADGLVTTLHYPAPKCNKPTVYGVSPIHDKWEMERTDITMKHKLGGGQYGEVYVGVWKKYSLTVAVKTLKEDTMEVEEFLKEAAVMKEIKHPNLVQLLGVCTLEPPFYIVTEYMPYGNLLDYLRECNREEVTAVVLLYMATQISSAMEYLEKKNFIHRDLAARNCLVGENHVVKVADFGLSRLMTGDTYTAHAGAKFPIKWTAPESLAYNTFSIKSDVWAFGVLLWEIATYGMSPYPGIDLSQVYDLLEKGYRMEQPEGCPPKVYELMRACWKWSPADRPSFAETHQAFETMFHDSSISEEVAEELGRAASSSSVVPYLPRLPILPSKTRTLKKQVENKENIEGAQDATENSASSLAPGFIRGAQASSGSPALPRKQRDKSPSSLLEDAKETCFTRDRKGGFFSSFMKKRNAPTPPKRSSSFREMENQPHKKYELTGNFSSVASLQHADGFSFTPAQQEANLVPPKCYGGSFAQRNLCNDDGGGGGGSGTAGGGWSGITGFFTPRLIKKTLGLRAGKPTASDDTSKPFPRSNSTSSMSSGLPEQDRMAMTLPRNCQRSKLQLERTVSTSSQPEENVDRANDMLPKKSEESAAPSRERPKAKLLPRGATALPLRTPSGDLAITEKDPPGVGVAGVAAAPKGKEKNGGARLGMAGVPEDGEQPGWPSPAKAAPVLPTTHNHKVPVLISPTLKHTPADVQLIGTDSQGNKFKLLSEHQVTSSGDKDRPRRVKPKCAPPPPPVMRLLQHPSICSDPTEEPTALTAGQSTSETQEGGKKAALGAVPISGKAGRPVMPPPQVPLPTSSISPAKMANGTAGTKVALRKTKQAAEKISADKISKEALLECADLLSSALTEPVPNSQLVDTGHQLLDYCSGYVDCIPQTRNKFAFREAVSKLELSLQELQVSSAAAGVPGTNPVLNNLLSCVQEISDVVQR

Turning to `COc1cc2c(cn1)N(C)C(=O)[C@@H](NC(=O)c1nc3n(n1)[C@H](c1ccccc1)CC3)CC2` [GNE684, (S)-N-((S)-7-methoxy-1-methyl-2-oxo-2,3,4,5-tetrahydro-1H-pyrido[3,4-b]azepin-3-yl)-5-phenyl-6,7-dihydro-5H-pyrrolo[1,2-b][1,2,4]triazole-2-carboxamide], the remaining binding at 10 µM at ABL2 amounted to 100%; at AKT2 it was 92%; at CDK2, 100%; at CDKL3, 69%; at CHEK1 it was 100%; at ERBB4 it was 85%. The remaining binding at 10 µM at FLT3(D835H) stood at 94%; at LOK, 82%; at NDR2 it was 100%; at NEK10 it was 100%; on PIM3 it was 100%; on PKN1, 94%. The remaining binding at 10 µM was found to be 95% at PRKCI; 100% on PRKR; 99% on PRKX; 84% at PRP4; 97% at QSK; 92% in [1]. Further, the remaining binding at 10 µM stood at 93% at SNRK, 85% on STK36 and 95% at WEE2.
